Series [1] in a line: 5-day equilibrium solubility of M/P-Dione (ternary phase diagram). Particulars: 2-MeTHF/n-heptane (1.4:1, v/v), RT, 5 days; for Solid XRPD: residual solid.
A short description of series [2]: physchem. To be noted: organic solvent or mixture, thermodynamic from solid.
[3] abbreviates: #3: 20.2 mg M-Dione + 119.3 mg P-Dione.
[4] abbreviates: #4: 89.8 mg M-Dione + 90.3 mg P-Dione.
The mark [5] stands for this setting: #5: 121.1 mg M-Dione + 40.7 mg P-Dione.
Where [6] appears, read: #6: 90.2 mg M-Dione + 19.5 mg P-Dione.
Where [7] appears, read: #7: 41.6 mg M-Dione + 39.9 mg P-Dione.
Setting [8] is: #8: 39.2 mg M-Dione + 120.3 mg P-Dione.
Where [9] appears, read: #9: 119.1 mg M-Dione + 20.5 mg P-Dione.

The record followed here is patent publication US12391691B2, “Synthesis of key intermediate of KRAS G12C inhibitor compound” (Amgen Inc., priority 2018, dated 2025).

Converted amounts (≈) assume the structure as drawn.

By solubility is commonly meant the dissolved amount per volume that the medium holds.

Regarding `Cc1ccnc(C(C)C)c1-n1c(=O)[nH]c(=O)c2cc(F)c(Cl)nc21` [M/P-Dione], the Solid de in series [1] (setting [3]) was −69.2%; in series [1] (setting [4]), 0.6%; in series [1] (setting [5]), 27.0%; in series [1] (setting [6]) it was 35.0%; in series [1] (setting [7]), 1.4%; in series [1] (setting [8]), −39.1%. Also, the Solid de in series [1] (setting [9]) stood at 54.9%. Besides, the “Supernatant [M]/[P]” value in series [1] (setting [3]) is recorded as 0.2; in series [1] (setting [4]) it was 0.9; in series [1] (setting [5]) it was 33.4; in series [1] (setting [6]), 37.6; in series [1] (setting [7]) it was 1.1; in series [1] (setting [8]), 0.2. Also, the “Supernatant [M]/[P]” value in series [1] (setting [9]) stood at 34.5. Also, the Supernatant de in series [1] (setting [3]) is recorded as −73.6%; in series [1] (setting [4]), −3.9%; in series [1] (setting [5]), 94.2%; in series [1] (setting [6]), 94.8%; in series [1] (setting [7]) it was 4.4%; in series [1] (setting [8]), −72.8%. The Supernatant de in series [1] (setting [9]) stood at 94.4%. Further, the “Solid XRPD” value is recorded as “A + RD” in series [1] (setting [3]); “A + RC” in series [1] (setting [5]); “A + RC” in series [1] (setting [6]); “A + RD” in series [1] (setting [8]); “A + RC” in series [1] (setting [9]).

`O=C(O[C@H](C(=O)O)[C@H](OC(=O)c1ccccc1)C(=O)O)c1ccccc1` [DBTA, (+)-2,3-dibenzoyl-D-tartaric acid]: the solubility at 5 days in series [2] (20 °C) turned out to be 99.1 mg/mL (≈ 277 mM); in series [2] (30 °C), 100 mg/mL (≈ 280 mM); in series [2] (40 °C), 98.9 mg/mL (≈ 276 mM); in series [2] (50 °C), 88 mg/mL (≈ 246 mM); in series [2] (60 °C) it was 105 mg/mL (≈ 293 mM); in series [2] (65 °C) it was 96.1 mg/mL (≈ 268 mM). The solubility at 5 days in series [2] is around 100 mg/mL (≈ 279 mM).
